This assay deals with CD2F1 mice, L1210 leukemia ip, survival T/C. In words: NCI In Vivo Anticancer Drug Screen. Data for tumor model L1210 Leukemia (intraperitoneal) in CD2F1 (CDF1) mice. Conditions: higher = longer survival. The essentials:
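In this screen, transplantable tumors were grown in mice given either the compound or its vehicle. Results were expressed as the treated measurement relative to the control measurement.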

The mark [1] stands for this setting: endpoint: mean survival time, dose: 100.0 mg/kg/injection, schedule: Q01DX001 (ip), vehicle: saline with Tween-80.
Where [2] appears, read: endpoint: mean survival time, dose: 200.0 mg/kg/injection, schedule: Q01DX001 (ip), vehicle: saline with Tween-80.
[3] abbreviates: endpoint: mean survival time, dose: 400.0 mg/kg/injection, schedule: Q01DX001 (ip), vehicle: saline with Tween-80.
[4] abbreviates: endpoint: mean survival time, dose: 50.0 mg/kg/injection, schedule: Q01DX009 (ip), vehicle: saline with Tween-80.
[5] abbreviates: endpoint: mean survival time, dose: 100.0 mg/kg/injection, schedule: Q01DX009 (ip), vehicle: saline with Tween-80.
The mark [6] stands for this setting: endpoint: mean survival time, dose: 200.0 mg/kg/injection, schedule: Q01DX009 (ip), vehicle: saline with Tween-80.
[7] abbreviates: endpoint: mean survival time, dose: 25.0 mg/kg/injection, schedule: Q01DX009 (ip), vehicle: saline with Tween-80.
[8] abbreviates: endpoint: mean survival time, dose: 400.0 mg/kg/injection, schedule: Q01DX009 (ip), vehicle: saline with Tween-80.
Setting [9] is: endpoint: mean survival time, dose: 100.0 mg/kg/injection, schedule: Q04DX003 (ip), vehicle: Klucel (hydroxypropylcellulose) (HPC).
The mark [10] stands for this setting: endpoint: mean survival time, dose: 200.0 mg/kg/injection, schedule: Q04DX003 (ip), vehicle: Klucel (hydroxypropylcellulose) (HPC).
Setting [11] is: endpoint: mean survival time, dose: 400.0 mg/kg/injection, schedule: Q04DX003 (ip), vehicle: Klucel (hydroxypropylcellulose) (HPC).
[12] abbreviates: endpoint: mean survival time, dose: 100.0 mg/kg/injection, schedule: Q04DX003 (ip), vehicle: saline with Tween-80.
Setting [13] is: endpoint: mean survival time, dose: 200.0 mg/kg/injection, schedule: Q04DX003 (ip), vehicle: saline with Tween-80.
Setting [14] is: endpoint: mean survival time, dose: 400.0 mg/kg/injection, schedule: Q04DX003 (ip), vehicle: saline with Tween-80.

Values joined by “and” are separate entries in the source; they are usually repeats but may differ in a detail not shown here. Equal values may be shown once. Toxic doses and inconclusive results are not listed.

For the molecule `Cc1c2c(ccc3ccccc32)c[n+]2ccccc12`, the T/C (endpoint: mean survival time, dose: 1.56 mg/kg/injection, schedule: Q01DX009 (ip), vehicle: saline) was 98 % of control and 100 % of control; the T/C (endpoint: mean survival time, dose: 3.12 mg/kg/injection, schedule: Q01DX009 (ip), vehicle: saline) is 103 % of control and 106 % of control; the T/C (endpoint: mean survival time, dose: 6.25 mg/kg/injection, schedule: Q01DX009 (ip), vehicle: saline) is 104 % of control and 105 % of control; the T/C (endpoint: mean survival time, dose: 12.5 mg/kg/injection, schedule: Q01DX009 (ip), vehicle: saline) was 103 % of control and 108 % of control.
As for `Cc1cccc(/C=C2\Cc3ccccc3C2=O)c1`, the T/C under setting [1] was 103 % of control, the T/C under setting [2] was 95 % of control and the T/C under setting [3] is 103 % of control.
For the molecule `CCCCc1nc2c(O)ccc(O)c2nc1C`, the T/C by setting is: (endpoint: mean survival time, dose: 18.75 mg/kg/injection, schedule: Q01DX009 (ip), vehicle: other) 96 % of control; (endpoint: mean survival time, dose: 37.5 mg/kg/injection, schedule: Q01DX009 (ip), vehicle: other) 94 % of control; (endpoint: mean survival time, dose: 75.0 mg/kg/injection, schedule: Q01DX009 (ip), vehicle: other) 90 % of control.
With `CCC/C=C/CCOC(=N)C(Cl)(Cl)Cl`, the T/C runs as follows: under setting [4], 92 % of control; under setting [5], 92 % of control; under setting [6], 88 % of control.
For `O=C(N/N=C\c1cc(Br)cc(Br)c1O)N/N=C/c1cc(Br)cc(Br)c1O`, the T/C is 117 % of control under setting [7]; 104 % of control and 111 % of control under setting [4]; 116 % of control and 122 % of control under setting [5]; 118 % of control and 94 % of control under setting [6]; 116 % of control and 88 % of control under setting [8].
As for `Brc1ccc([Si](c2ccccc2)(c2ccccc2)c2ccc(-c3ccccc3)cc2)cc1`, the T/C is, setting by setting: (endpoint: mean survival time, dose: 100.0 mg/kg/injection, schedule: Q01DX009 (ip), vehicle: other) 102 % of control; (endpoint: mean survival time, dose: 200.0 mg/kg/injection, schedule: Q01DX009 (ip), vehicle: other) 96 % of control; (endpoint: mean survival time, dose: 400.0 mg/kg/injection, schedule: Q01DX009 (ip), vehicle: other) 96 % of control.
For `O=C(O)CC1(Br)C(=O)Nc2ccccc21` (configuration not stated), the T/C was 98 % of control under setting [9], 102 % of control under setting [10] and 98 % of control under setting [11].
Regarding `Nc1c(O)cc(S(=O)(=O)O)c2ccccc12`, the T/C runs as follows: (endpoint: mean survival time, dose: 25.0 mg/kg/injection, schedule: Q04DX003 (ip), vehicle: saline) 95 % of control; (endpoint: mean survival time, dose: 50.0 mg/kg/injection, schedule: Q04DX003 (ip), vehicle: saline) 103 % of control; (endpoint: mean survival time, dose: 100.0 mg/kg/injection, schedule: Q04DX003 (ip), vehicle: saline) 109 % of control.
Consider `O=c1[nH]cc(Cc2cccc(OCc3ccccc3)c2)c(=O)[nH]1`, for which the T/C runs as follows: (endpoint: mean survival time, dose: 75.0 mg/kg/injection, schedule: Q01DX001 (ip), vehicle: saline with Tween-80) 97 % of control; (endpoint: mean survival time, dose: 150.0 mg/kg/injection, schedule: Q01DX001 (ip), vehicle: saline with Tween-80) 98 % of control; (endpoint: mean survival time, dose: 300.0 mg/kg/injection, schedule: Q01DX001 (ip), vehicle: saline with Tween-80) 89 % of control.
In the case of `CCOC(=O)C(=CNc1ccc(OC)cc1[N+](=O)[O-])C(=O)OCC`, the T/C is 103 % of control (endpoint: mean survival time, dose: 100.0 mg/kg/injection, schedule: Q01DX005 (ip), vehicle: saline with Tween-80); 93 % of control under setting [5]; 97 % of control (endpoint: mean survival time, dose: 200.0 mg/kg/injection, schedule: Q01DX005 (ip), vehicle: saline with Tween-80); 89 % of control under setting [6]; 91 % of control (endpoint: mean survival time, dose: 400.0 mg/kg/injection, schedule: Q01DX005 (ip), vehicle: saline with Tween-80); 89 % of control under setting [8].
With `O=[N+]([O-])c1ccc(Oc2ccc(S(=O)(=O)O)cc2)cc1`, the T/C was 95 % of control (endpoint: mean survival time, dose: 25.0 mg/kg/injection, schedule: Q04DX002 (ip), vehicle: saline with Tween-80); 103 % of control (endpoint: mean survival time, dose: 50.0 mg/kg/injection, schedule: Q04DX002 (ip), vehicle: saline with Tween-80); 91 % of control (endpoint: mean survival time, dose: 100.0 mg/kg/injection, schedule: Q04DX002 (ip), vehicle: saline with Tween-80).
As to `[Cl][Pt+2][Cl].[NH-]CC1CCCC[N-]1` (configuration not stated), the T/C is, setting by setting: (endpoint: mean survival time, dose: 6.25 mg/kg/injection, schedule: Q04DX003 (ip), vehicle: distilled water + Tween-80) 121 % of control; (endpoint: mean survival time, dose: 12.5 mg/kg/injection, schedule: Q04DX003 (ip), vehicle: distilled water + Tween-80) 115 % of control; (endpoint: mean survival time, dose: 25.0 mg/kg/injection, schedule: Q04DX003 (ip), vehicle: distilled water + Tween-80) 150 % of control; (endpoint: mean survival time, dose: 50.0 mg/kg/injection, schedule: Q04DX003 (ip), vehicle: distilled water + Tween-80) 123 % of control; (endpoint: mean survival time, dose: 200.0 mg/kg/injection, schedule: Q04DX003 (ip), vehicle: distilled water + Tween-80) 91 % of control; (endpoint: median survival time, dose: 12.5 mg/kg/injection, schedule: Q04DX002 (ip), vehicle: saline) 168 % of control. Also, the T/C (endpoint: median survival time, dose: 25.0 mg/kg/injection, schedule: Q04DX002 (ip), vehicle: saline) is 158 % of control.
In the case of `Nc1ccc(C(=O)Nc2ccc(OCc3nc(N)nc(N)c3-c3ccc(Cl)cc3)cc2)cc1`, the T/C is, setting by setting: under setting [1], 97 % of control; under setting [2], 93 % of control; under setting [3], 95 % of control.
Regarding `CC(C)c1cc2ccccc2s1`, the T/C runs as follows: (endpoint: mean survival time, dose: 100.0 mg/kg/injection, schedule: Q01DX001 (ip), vehicle: saline) 96 % of control; (endpoint: mean survival time, dose: 200.0 mg/kg/injection, schedule: Q01DX001 (ip), vehicle: saline) 102 % of control.
Take `CC(=O)Nc1ccc(C(=O)C=O)cc1`: the T/C reads like this: (endpoint: mean survival time, dose: 6.25 mg/kg/injection, schedule: Q01DX009 (ip), vehicle: saline with Tween-80) 103 % of control; (endpoint: mean survival time, dose: 12.5 mg/kg/injection, schedule: Q01DX009 (ip), vehicle: saline with Tween-80) 110 % of control; under setting [7], 107 % of control; under setting [4], 113 % of control; under setting [5], 110 % of control; under setting [6], 103 % of control.
Consider `[O-][n+]1onc2ccc(Cl)cc21`, for which the T/C under setting [9] is 102 % of control.
Regarding `CC(C)(C)NC[Si](C)(C)C`, the T/C (endpoint: mean survival time, dose: 25.0 mg/kg/injection, schedule: Q01DX009 (ip), vehicle: saline) was 94 % of control and the T/C (endpoint: mean survival time, dose: 50.0 mg/kg/injection, schedule: Q01DX009 (ip), vehicle: saline) was 101 % of control.
As to `COc1ccc(C(=O)CC(C(=O)O)c2ccc(OC)c(OC)c2)cc1OC` (configuration not stated), the T/C reads like this: under setting [12], 98 % of control; under setting [13], 102 % of control; under setting [14], 91 % of control.
With `COc1ccc(/C=c2\[nH]c(=O)/c(=C/c3ccc(OC)c(OC)c3)[nH]c2=O)cc1OC`, the T/C is, setting by setting: under setting [7], 95 % of control; under setting [4], 103 % of control; under setting [5], 90 % of control.
`N=P(N[P+](N)(c1ccccc1)c1ccccc1)(c1ccccc1)c1ccccc1`: the T/C runs as follows: (endpoint: mean survival time, dose: 1.56 mg/kg/injection, schedule: Q01DX009 (ip), vehicle: Klucel (hydroxypropylcellulose) (HPC)) 103 % of control; (endpoint: mean survival time, dose: 3.12 mg/kg/injection, schedule: Q01DX009 (ip), vehicle: Klucel (hydroxypropylcellulose) (HPC)) 103 % of control; (endpoint: mean survival time, dose: 6.25 mg/kg/injection, schedule: Q01DX009 (ip), vehicle: Klucel (hydroxypropylcellulose) (HPC)) 91 % of control and 103 % of control.
Take `CCCCCC(C=O)C(O)(C(F)(F)F)C(F)(F)Cl` (configuration not stated): the T/C was 96 % of control under setting [9], 91 % of control under setting [10] and 96 % of control under setting [11].
Regarding `c1ccc2c(c1)C1c3cccc[n+]3C2C2C1CC1C3c4ccccc4C(C12)[n+]1ccccc13` (configuration not stated), the T/C (endpoint: mean survival time, dose: 12.5 mg/kg/injection, schedule: Q04DX003 (ip), vehicle: saline) was 98 % of control.
As for `NC(=O)CSc1ccccc1`, the T/C is 101 % of control (endpoint: mean survival time, dose: 100.0 mg/kg/injection, schedule: Q01DX001 (ip), vehicle: other); 101 % of control (endpoint: mean survival time, dose: 200.0 mg/kg/injection, schedule: Q01DX001 (ip), vehicle: other); 107 % of control (endpoint: mean survival time, dose: 400.0 mg/kg/injection, schedule: Q01DX001 (ip), vehicle: other).
For the molecule `CCCc1cc(OC)ccc1O`, the T/C is 96 % of control under setting [5]; 96 % of control under setting [12]; 100 % of control under setting [6]; 94 % of control under setting [13]; 100 % of control under setting [8]; 103 % of control under setting [14].

For the origin of these results see PubChem BioAssay AID256 (DTP/NCI, 2004).
